These results are taken from US10517867B2, “Posaconazole derivative, pharmaceutical composition and use thereof” (priority 2016, dated 2019).

Series [1] in a line: Pharmacokinetics after single intragastric administration to rats. In kind it is in vivo, SD rats. Particulars: plasma posaconazole, 2.5 mg/kg (calculated as posaconazole). Here is the method: Administration amount: 2.5 mg/kg (calculated as posaconazole)
Administration volume: 10 ml/kg
Drug concentration: 0.25 mg/mL
Administration vehicle: the positive drug posaconazole group used CMC—Na, while other groups used normal saline (physiological saline)
Administration route: intragastric administration
Experimental animals: SD rats, SPF grade, weighing 180-220 g, equal amount of male and female. Rats were randomly divided into groups of 6 with 3 males and 3 females.
Experimental protocol: after oral intragastric administration, blood samples were collected at different time points to determine the concentration of posaconazole in the plasma and the pharmacokinetic parameters of posaconazole were obtained.

Series [2] relates to Candida albicans ATCC10231. In words: Systemic fungal infection in mice, intragastric administration. It counts as in vivo, ICR mice. Particulars: Candida albicans, ATCC10231, po.
For series [3], the system named is Candida albicans ATCC10231. In words: Candida albicans vaginitis in mice, intragastric administration. In kind it is in vivo, KM mice. Particulars: logarithm of the CFU values, mean ± SD of 20 mice, 20 mg/kg intragastric once a day.
In series [4] the test system is Aspergillus Fumigutus (AF) strains. Put plainly: Aspergillus fumigatus keratitis in rats, intravenous administration. Conditions: 10 mg/kg tail vein once daily for 5 days; mean ± SD of 10 rats.
In series [5] the test system is Candida albicans ATCC10231. In words: Candida albicans vaginitis in mice, intravenous administration. Conditions: logarithm of the CFU values, mean ± SD of 20 mice; for vaginal fungal load of mice, day 5: 20 mg/kg tail vein once a day for 5 days, day 5 after infection; for vaginal fungal load of mice, day 3: 20 mg/kg tail vein once a day, day 3 after infection.
Protocol: KM mice, weighing 18-22 g, female, provided by Hubei Experimental Animal Center.
The standard strain of Candida albicans was purchased from the American Type Culture
Collection, strain number ATCC10231.
Prior to being infected with Candida albicans, animals in each group were given subcutaneous injections of 0.5 ml of estradiol benzoate (2 mg/ml) for 6 consecutive days to allow them to enter the estrus phase. Injections were continued once every 2 days until the completion of the experiment. After 6 days, 20 μl of Candida albicans solution in a concentration of 3.5×10^6 CFU/ml was injected vaginally into each mouse, causing a vaginal infection model. From the first day after infection, each group of animals was given 20 mg/kg of the corresponding drug (calculated as posaconazole) in the tail vein at an administration volume of 0.1 ml/10 g once a day for 5 consecutive days. The model group was given an equal volume of solvent (physiological saline). On the 3rd and 5th days after infection, the vagina of mice were wiped with sterile cotton swabs. The cotton swabs were soaked in 0.9 ml physiological saline. The fungal solutions were diluted to 10-fold increments to give a series of concentrations, and then 100 μl of each concentration of the bacteria solutions was taken and inoculated on Sabourand's dextrose agar solid medium containing 0.5% (W/V) chloramphenicol to observe the fungal load of Candida albicans on the vagina.
For series [6], the system named is Candida albicans ATCC10231. Put plainly: Systemic fungal infection in mice, intravenous administration. It counts as in vivo, ICR mice.
Series [7] deals with Aspergillus fumigatus AF293. Put plainly: Lung Aspergillus fumigatus infection in immunosuppressed mice, intravenous administration. Particulars: for responders at 20 mg/kg: Aspergillus fumigatus, AF293, in Mus musculus, iv; for lung fungal load: mouse lung tissue, seven days later, 20 mg/kg tail vein once daily for 5 days, mean ± SD.
A short description of series [8]: Solid stability test (stability chamber, HPLC total impurity). It counts as physicochemical. Particulars: solid, packaged, 25° C.±2° C., relative humidity 60%±2%.
Series [9] can be described thus: Determination of solubility in deionized water (HPLC, external standard). Conditions: for solubility at 30 min: 25 °C, water, thermodynamic from solid.
The mark [10] stands for this setting: 24 h, read-out: survival rate of mice, day 1, 20 mg/kg intragastric once daily for 5 days, day 1.
Setting [11] is: 48 h, read-out: survival rate of mice, day 2, 20 mg/kg intragastric once daily for 5 days, day 2.
Where [12] appears, read: 72 h, read-out: survival rate of mice, day 3, 20 mg/kg intragastric once daily for 5 days, day 3.
Setting [13] is: 96 h, read-out: survival rate of mice, day 4, 20 mg/kg intragastric once daily for 5 days, day 4.
Where [14] appears, read: 120 h, read-out: survival rate of mice, day 5, 20 mg/kg intragastric once daily for 5 days, day 5.
Where [15] appears, read: 144 h, read-out: survival rate of mice, day 6, 20 mg/kg intragastric once daily for 5 days, day 6.
[16] abbreviates: 168 h, read-out: survival rate of mice, day 7, 20 mg/kg intragastric once daily for 5 days, day 7.
Where [17] appears, read: 24 h, read-out: survival rate of mice, day 1.
Setting [18] is: 48 h, read-out: survival rate of mice, day 2.
Where [19] appears, read: 72 h, read-out: survival rate of mice, day 3.
Setting [20] is: 96 h, read-out: survival rate of mice, day 4.
The mark [21] stands for this setting: 120 h, read-out: survival rate of mice, day 5.
[22] abbreviates: 144 h, read-out: survival rate of mice, day 6.
Setting [23] is: 168 h, read-out: survival rate of mice, day 7.
Setting [24] is: 24 h, read-out: survival rate of mice, day 1, 20 mg/kg tail vein once daily for 5 days, day 1.
Setting [25] is: 48 h, read-out: survival rate of mice, day 2, 20 mg/kg tail vein once daily for 5 days, day 2.
[26] abbreviates: 72 h, read-out: survival rate of mice, day 3, 20 mg/kg tail vein once daily for 5 days, day 3.
[27] abbreviates: 96 h, read-out: survival rate of mice, day 4, 20 mg/kg tail vein once daily for 5 days, day 4.
Where [28] appears, read: 120 h, read-out: survival rate of mice, day 5, 20 mg/kg tail vein once daily for 5 days, day 5.
Setting [29] is: 144 h, read-out: survival rate of mice, day 6, 20 mg/kg tail vein once daily for 5 days, day 6.
Where [30] appears, read: 168 h, read-out: survival rate of mice, day 7, 20 mg/kg tail vein once daily for 5 days, day 7.

Read-outs that look alike come from different tables or passages of the source. Where only a bound is given, the exact number is not on record here.

On to `CC[C@@H]([C@H](C)O)n1ncn(-c2ccc(N3CCN(c4ccc(OC[C@@H]5CO[C@@](Cn6c[n+](C(C)OC(=O)NCC(=O)[O-])cn6)(c6ccc(F)cc6F)C5)cc4)CC3)cc2)c1=O.[Cl-].[Na+]` (stereo partly shown) [ST0019], for which, in series [1], the AUClast is 1985 ± 358 ng·h/mL, the Cmax is 102 ± 26 ng/mL and the T1/2 is on record as 11.41 ± 3.25 h.

As for `CC[C@@H]([C@H](C)O)n1ncn(-c2ccc(N3CCN(c4ccc(OC[C@@H]5CO[C@@](Cn6c[n+](C(C)OC(=O)N(C)c7ncccc7COC(=O)[C@@H](N)CCCN)cn6)(c6ccc(F)cc6F)C5)cc4)CC3)cc2)c1=O` (stereo partly shown) [ST0003], the responders at 20 mg/kg came to 100% in [2] (setting [10]); 100% in series [2] (setting [11]); 100% in series [2] (setting [12]); 90% in series [2] (setting [13]); 80% in series [2] (setting [14]); 80% in series [2] (setting [15]). Further, the responders at 20 mg/kg stood at 80% in series [2] (setting [16]); 100% in series [6] (setting [17]); 100% in [6] (setting [18]); 100% in series [6] (setting [19]); 100% in [6] (setting [20]); 100% in series [6] (setting [21]). Further, the responders at 20 mg/kg stood at 100% in series [6] (setting [22]); 90% in [6] (setting [23]); 100% in series [7] (setting [24]); 100% in series [7] (setting [25]); 100% in series [7] (setting [26]); 100% in series [7] (setting [27]). In addition, the responders at 20 mg/kg is 100% in series [7] (setting [28]), 90% in series [7] (setting [29]) and 90% in series [7] (setting [30]). Besides, the “vaginal fungal load of mice, day 3” value is listed as 4.23 ± 0.41 in [3] (20 mg/kg) and 4.11 ± 0.30 in series [5] (20 mg/kg). Moreover, the “vaginal fungal load of mice, day 5” value in series [3] (20 mg/kg) is on record as 4.05 ± 0.37; in [5] (20 mg/kg), 3.85 ± 0.28. In addition, in series [3] (20 mg/kg), the “vaginal fungal load of mice, day 7” value is 3.28 ± 0.36. Further, the “vaginal fungal load of mice, day 11” value in series [3] (20 mg/kg) was 2.47 ± 0.18. Besides, the “Amount of active fungi in cornea at day 7” value (from here on “Amount of active fungi”) in [4] is reported as 1.48 ± 0.38 10^3 CFU/ml. For the same compound, the lung fungal load in series [7] (20 mg/kg) is given as 1.39 ± 0.32 10^4 CFU/ml. For the same compound, in series [8], the “Total impurity increment in 30 days” value was determined as 0.68%. The same compound came in with a Solubility in series [9] (25±2° C., after 30 min) greater than 50 mg/mL.

On to `CC[C@@H]([C@H](C)O)n1ncn(-c2ccc(N3CCN(c4ccc(OC[C@@H]5CO[C@@](Cn6c[n+](C(C)OC(=O)N(C)c7ncccc7COC(=O)[C@@H](N)CCN)cn6)(c6ccc(F)cc6F)C5)cc4)CC3)cc2)c1=O` (stereo partly shown) [ST0006], for which the responders at 20 mg/kg in series [2] (setting [10]) amounted to 100%; in series [2] (setting [11]), 100%; in series [2] (setting [12]), 90%; in series [2] (setting [13]), 80%; in series [2] (setting [14]), 70%; in series [2] (setting [15]) it was 70%. Further, the responders at 20 mg/kg worked out at 70% in series [2] (setting [16]); 100% in series [7] (setting [24]); 100% in series [7] (setting [25]); 100% in [7] (setting [26]); 100% in series [7] (setting [27]); 90% in series [7] (setting [28]). The responders at 20 mg/kg was 90% in series [7] (setting [29]) and 80% in series [7] (setting [30]). Further, in [3], the “vaginal fungal load of mice, day 3” value turned out to be 4.32 ± 0.29. Also, in series [3], the “vaginal fungal load of mice, day 5” value worked out at 4.18 ± 0.20. In addition, the “vaginal fungal load of mice, day 7” value in [3] came out at 3.49 ± 0.54. Besides, the “vaginal fungal load of mice, day 11” value in series [3] amounted to 2.84 ± 0.37. The “Amount of active fungi” value in series [4] is reported as 1.92 ± 0.41 10^3 CFU/ml. The lung fungal load in [7] is recorded as 1.73 ± 0.34 10^4 CFU/ml. In addition, the solubility at 30 min in [9] is greater than 50 mg/mL.

As to `CC[C@@H]([C@H](C)O)n1ncn(-c2ccc(N3CCN(c4ccc(OC[C@@H]5CO[C@@](Cn6c[n+](C(C)OC(=O)N(C)c7ncccc7COC(=O)[C@@H](N)CCCNC(N)=O)cn6)(c6ccc(F)cc6F)C5)cc4)CC3)cc2)c1=O` (stereo partly shown) [ST0012], the responders at 20 mg/kg in [2] (setting [10]) was 100%; in [2] (setting [11]), 100%; in series [2] (setting [12]), 100%; in series [2] (setting [13]), 80%; in series [2] (setting [14]), 80%; in series [2] (setting [15]), 80%. The responders at 20 mg/kg in series [2] (setting [16]) is 80%; in series [6] (setting [17]) it was 100%; in series [6] (setting [18]), 100%; in [6] (setting [19]), 100%; in [6] (setting [20]), 100%; in [6] (setting [21]) it was 100%. Also, the responders at 20 mg/kg in series [6] (setting [22]) worked out at 100%; in [6] (setting [23]), 90%; in series [7] (setting [24]) it was 100%; in [7] (setting [25]) it was 100%; in series [7] (setting [26]) it was 100%; in series [7] (setting [27]), 100%. The figures for the responders at 20 mg/kg in series [7] (setting [28]), in series [7] (setting [29]) and in series [7] (setting [30]) were 100%, 90% and 90%, respectively. Moreover, the entries for the “vaginal fungal load of mice, day 3” value in series [3] and in [5] were 4.17 ± 0.43 and 4.01 ± 0.28, respectively. Further, the “vaginal fungal load of mice, day 5” value in [3] is on record as 4.12 ± 0.35; in [5] it was 3.75 ± 0.26. Further, in [3], the “vaginal fungal load of mice, day 7” value came out at 3.10 ± 0.34. For the same compound, in series [3], the “vaginal fungal load of mice, day 11” value stood at 2.42 ± 0.19. In [4], the “Amount of active fungi” value is 1.45 ± 0.37 10^3 CFU/ml. In series [7], the lung fungal load is recorded as 1.42 ± 0.30 10^4 CFU/ml. Also, the solubility at 30 min in [9] is greater than 50 mg/mL.
